Counter-ions that a name gives are not always drawn.

`Cn1c(C(=O)NC(=N)N)cc2c(Cl)ccc(OCP(=O)(O)O)c21` [Example 48, [[2-[[[Amino(imino)methyl]amino]carbonyl]-4-chloro-1-methyl-1H-indol-7-yl]oxy]methylphosphonic Acid]: the melting point came out at 247 °C. In the case of `Cn1c(C(=O)NC(=N)N)cc2c(C(F)(F)F)cc(CCP(=O)(O)O)cc21` [Example 51, 2-[2-[[[amino(imino)methyl]-amino]carbonyl]-1-methyl-4-(trifluoromethyl)-1H-indol-6-yl]ethylphosphonic Acid] it was 277 °C (dec.); in that of `Cn1c(C(=O)NC(=N)N)cc2c(C(F)(F)F)ccc(CS(=O)(=O)O)c21` [Example 38, [2-[[[Amino(imino)methyl]amino]carbonyl]-1-methyl-4-(trifluoromethyl)-1H-indol-7-yl]methanesulfonic Acid], not below 300 °C; in that of `Cc1cc(CCP(=O)(O)O)cc2c1cc(C(=O)NC(=N)N)n2C` [Example 54, 2-[2-[[[Amino(imino)methyl]amino]carbonyl]-1,4-dimethyl-1H-indol-6-yl]ethylphosphonic Acid], 255 °C (dec.).

Take `Cc1cc(CCS(=O)(=O)O)cc2c1cc(C(=O)NC(=N)N)n2C` [Example 42, 2-[2-[[[Amino(imino)methyl]amino]carbonyl]-1,4-dimethyl-1H-indol-6-yl]ethanesulfonic Acid]: the melting point was ≥ 300 °C (dec.). The result for `Cc1ccc(OCC(=O)O)c2c1cc(C(=O)NC(=N)N)n2C` [Example 26, [[2-[[[Amino(imino)methyl]amino]carbonyl]-1,4-dimethyl-1H-indol-7-yl]oxy]acetic Acid] reads 248 to 252 °C (dec.); that for `Cc1c(OS(=O)(=O)O)ccc2c1cc(C(=O)NC(=N)N)n2C` (as salt: sulfate) [Example 1, 2-[[[amino(imino)methyl]amino]-carbonyl]-1,4-dimethyl-1H-indol-5-yl Hydrogen Sulfate], 267 to 268 °C (dec.). In the case of `Cn1c(C(=O)NC(=N)N)cc2c(OS(=O)(=O)O)cccc21` (as salt: sulfate) [Example 5, 2-[[[Amino(imino)methyl]amino]carbonyl]-1-methyl-1H-indol-4-yl Hydrogen Sulfate] it was 249 to 250 °C (dec.); in that of `CS(=O)(=O)O.Cn1c(C(=O)NC(=N)N)cc2c(C(F)(F)F)ccc(P(=O)(O)O)c21`, 258 °C (dec.); in that of `Cn1c(C(=O)NC(=N)N)cc2c(Cl)ccc(CP(=O)(O)O)c21` [Example 18, [2-[[[Amino(imino)methyl]amino]carbonyl]-4-chloro-1-methyl-1H-indol-7-yl]methylphosphonic Acid], 273 to 284 °C (dec.). In the case of `Cn1c(C(=O)NC(=N)N)cc2c(C(F)(F)F)cc(OCC(=O)O)cc21` [Example 21, [[2-[[[amino(imino)methyl]-amino]carbonyl]-1-methyl-4-(trifluoromethyl)-1H-indol-6-yl]oxy]acetic Acid] it was 250 to 266 °C (dec.); in that of `Cn1c(C(=O)NC(=N)N)cc2c(C(F)(F)F)ccc(OCC(=O)O)c21` [Example 22, [[2-[[[Amino(imino)methyl]amino]carbonyl]-1-methyl-4-(trifluoromethyl)-1H-indol-7-yl]oxy]acetic Acid], 224 to 233 °C (dec.). `Br.Cn1c(C(=O)NC(=N)N)cc2c(C(F)(F)F)ccc(CCP(=O)(O)O)c21`: the melting point is 234 °C (dec.). The result for `Cn1c(C(=O)NC(=N)N)cc2ccc(OS(=O)(=O)O)cc21` (as salt: sulfate) [Example 7, 2-[[[Amino(imino)methyl]amino]carbonyl]-1-methyl-1H-indol-6-yl Hydrogen Sulfate] reads 283 to 284 °C (dec.); that for `CS(=O)(=O)O.Cn1c(C(=O)NC(=N)N)cc2cc(O[C@@H]3O[C@H](C(=O)O)[C@@H](O)[C@H](O)[C@H]3O)ccc21` [Example 9, [2-[[[Amino(imino)methyl]amino]carbonyl]-1-methyl-1H-indol-5-yl] β-D-glucopyranosideuronic Acid Methanesulfonate], 219 °C (dec.). In the case of `Cn1c(C(=O)NC(=N)N)cc2c(Cl)ccc(OCC(=O)O)c21` [Example 24, [[2-[[[Amino(imino)methyl]amino]carbonyl]-4-chloro-1-methyl-1H-indol-7-yl]oxy]acetic Acid] it was 210 to 225 °C (dec.).

Regarding `Cc1ccc(OCCCS(=O)(=O)O)c2c1cc(C(=O)NC(=N)N)n2C` [Example 36, 3-[[2-[[[Amino(imino)methyl]amino]carbonyl]-1,4-dimethyl-1H-indol-7-yl]oxy]-1-propanesulfonic Acid], the melting point was ≥ 278 °C (dec.). The result for `CS(=O)(=O)O.Cn1c(C(=O)NC(=N)N)cc2ccc(O[C@@H]3O[C@H](C(=O)O)[C@@H](O)[C@H](O)[C@H]3O)cc21` [Example 8, [2-[[[amino(imino)methyl]amino]-carbonyl]-1-methyl-1H-indol-6-yl] β-D-glucopyranosideuronic Acid Methanesulfonate] reads 170 to 171 °C; that for `N=C(N)NC(=O)c1cc2c(Cl)cccc2n1CCCS(=O)(=O)O` [Example 27, 3-[2-[[[amino(imino)methyl]-amino]carbonyl]-4-chloro-1H-indol-1-yl]-1-propanesulfonic Acid], 281 °C (dec.).

Regarding `Cn1c(C(=O)NC(=N)N)cc2c(C(F)(F)F)ccc(OCCS(=O)(=O)O)c21` [Example 31, 2-[[2-[[[Amino(imino)methyl]amino]carbonyl]-1-methyl-4-(trifluoromethyl)-1H-indol-7-yl]oxy]-ethanesulfonic Acid], the melting point was 275 °C (dec.).

In the case of `Cn1c(C(=O)NC(=N)N)cc2cc(OS(=O)(=O)O)ccc21` (as salt: sulfate) [Example 6, 2-[[[Amino(imino)methyl]amino]carbonyl]-1-methyl-1H-indol-5-yl Hydrogen Sulfate], the melting point is 280 to 281 °C (dec.). The result for `Cn1c(C(=O)NC(=N)N)cc2c(Cl)cc(CCS(=O)(=O)O)cc21` [Example 41, 2-[2-[[[Amino(imino)methyl]amino]carbonyl]-4-chloro-1-methyl-1H-indol-6-yl]ethanesulfonic Acid] reads not below 300 °C. The result for `Cc1cc(OS(=O)(=O)O)cc2c1cc(C(=O)NC(=N)N)n2C` (as salt: sulfate) [Example 2, 2-[[[Amino(imino)methyl]amino]carbonyl]-1,4-dimethyl-1H-indol-6-yl Hydrogen Sulfate] reads 303 to 304 °C (dec.); that for `Cn1c(C(=O)NC(=N)N)cc2c(C(F)(F)F)ccc(OCP(=O)(O)O)c21` [Example 46, [[2-[[[Amino(imino)methyl]amino]carbonyl]-1-methyl-4-(trifluoromethyl)-1H-indol-7-yl]oxy]methylphosphonic Acid], 260 °C (dec.).

As to `Cn1c(C(=O)NC(=N)N)cc2c(Cl)cc(OS(=O)(=O)O)cc21` (as salt: sulfate) [Example 11, 2-[[[Amino(imino)methyl]amino]carbonyl]-4-chloro-1-methyl-1H-indol-6-yl Hydrogen Sulfate], the melting point is 298 °C (dec.). In the case of `Cc1cc(OCC(=O)O)cc2c1cc(C(=O)NC(=N)N)n2C` [Example 25, [[2-[[[Amino(imino)methyl]amino]carbonyl]-1,4-dimethyl-1H-indol-6-yl]oxy]acetic Acid] it was 260 to 270 °C (dec.); in that of `Cn1c(C(=O)NC(=N)N)cc2c(C(F)(F)F)cc(OCP(=O)(O)O)cc21` [Example 45, [[2-[[[amino(imino)methyl]-amino]carbonyl]-1-methyl-4-(trifluoromethyl)-1H-indol-6-yl]oxy]-methylphosphonic Acid], 292 °C (dec.).

`Cn1c(C(=O)NC(=N)N)cc2c(Cl)cc(OCC(=O)O)cc21` [Example 23, [[2-[[[Amino(imino)methyl]amino]carbonyl]-4-chloro-1-methyl-1H-indol-6-yl]oxy]acetic Acid]: the melting point was 257 to 260 °C (dec.). In the case of `Cn1c(C(=O)NC(=N)N)cc2c(C(F)(F)F)cc(CCS(=O)(=O)O)cc21` [Example 39, 2-[2-[[[amino(imino)methyl]-amino]carbonyl]-1-methyl-4-(trifluoromethyl)-1H-indol-6-yl]ethanesulfonic Acid] it was not below 300 °C. The result for `Cc1ccc(OS(=O)(=O)O)c2c1cc(C(=O)NC(=N)N)n2C` (as salt: sulfate) [Example 4, 2-[[[amino(imino)methyl]amino]-carbonyl]-1,4-dimethyl-1H-indol-7-yl Hydrogen Sulfate] reads > 315 °C (dec.). Consider `Cn1c(C(=O)NC(=N)N)cc2c(Cl)cc(CP(=O)(O)O)cc21` [Example 17, [2-[[[Amino(imino)methyl]amino]carbonyl]-4-chloro-1-methyl-1H-indol-6-yl]methylphosphonic Acid], for which the melting point is 265 to 282 °C (dec.).

As for `Cn1c(C(=O)NC(=N)N)cc2c(Cl)cc(OCCCS(=O)(=O)O)cc21` [Example 34, 3-[[2-[[[Amino(imino)methyl]amino]carbonyl]-4-chloro-1-methyl-1H-indol-6-yl]oxy]-1-propanesulfonic Acid], the melting point was 325 °C (dec.).

In the case of `Cn1c(C(=O)NC(=N)N)cc2c(C(F)(F)F)ccc(CP(=O)(O)O)c21` [Example 16, [2-[[[Amino(imino)methyl]amino]carbonyl]-1-methyl-4-(trifluoromethyl)-1H-indol-7-yl]methylphosphonic Acid], the melting point was 249 to 265 °C (dec.). The result for `Cc1ccc(CP(=O)(O)O)c2c1cc(C(=O)NC(=N)N)n2C` [Example 20, [2-[[[Amino(imino)methyl]amino]carbonyl]-1,4-dimethyl-1H-indol-7-yl]methylphosphonic Acid] reads 239 to 280 °C (dec.); that for `Cn1c(C(=O)NC(=N)N)cc2c(C(F)(F)F)ccc(OS(=O)(=O)O)c21` (as salt: sulfate) [Example 13, 2-[[[Amino(imino)methyl]amino]carbonyl]-1-methyl-4-(trifluoromethyl)-1H-indol-7-yl Hydrogen Sulfate], 298 °C (dec.).

The record behind these values is patent US6734205B2, “Substituted guanidine derivatives” (Sumitomo Pharmaceuticals Company Limited, priority 1999, dated 2004).
